This is an account of results in ChEMBL document CHEMBL5050844 (2019).

A short description of assay [1]: Induction of anti-CD3/CD28 antibodies-stimulated human T cell activation at 1 uM assessed fold increase in IL-2 secretion measured by ELISA assay. Format: functional, T cell line.
A short description of assay [2]: Induction of anti-CD3 antibodies-stimulated human T cell activation at 8 uM assessed fold increase in IL-2 secretion measured by ELISA assay. Note: reference of the scale not given here. It counts as functional, T cell line. On the technique in general: An ELISA detects its analyte on a solid surface through an enzyme-linked reagent.
A short description of assay [3]: Induction of anti-CD3/CD28 antibodies-stimulated human T cell activation at 4 uM assessed fold increase in CD25 expression measured by ELISA assay. It counts as functional, T cell line.
The nature of assay [4]: Induction of anti-CD3 antibodies-stimulated human T cell activation at 8 uM assessed fold increase in CD25 expression measured by ELISA assay. Note: reference of the scale not given here. It counts as functional, T cell line.
Assay [5] in a line: Induction of anti-CD3/CD28 antibodies-stimulated human T cell activation at 1 uM assessed fold increase in CD25 expression measured by ELISA assay. It counts as functional, T cell line.
Assay [6] deals with E3 ubiquitin-protein ligase CBL-B (Homo sapiens, UniProt Q13191). Nature of the assay: Inhibition of N-terminal Avi-tagged human CBL-B (36 to 427 residues) incubated with 60 nM Src kinase for 1.5 hrs followed by incubation with fluorescently labeled UbcH5B-Ub for 1 hr and measured by TR-FRET assay. It counts as single protein. A general note: Time-resolved FRET reads energy transfer from a long-lived donor to a nearby acceptor.
E3 ubiquitin-protein ligase CBL-B, sequence (Q13191 whole entry, the tested form may be a part): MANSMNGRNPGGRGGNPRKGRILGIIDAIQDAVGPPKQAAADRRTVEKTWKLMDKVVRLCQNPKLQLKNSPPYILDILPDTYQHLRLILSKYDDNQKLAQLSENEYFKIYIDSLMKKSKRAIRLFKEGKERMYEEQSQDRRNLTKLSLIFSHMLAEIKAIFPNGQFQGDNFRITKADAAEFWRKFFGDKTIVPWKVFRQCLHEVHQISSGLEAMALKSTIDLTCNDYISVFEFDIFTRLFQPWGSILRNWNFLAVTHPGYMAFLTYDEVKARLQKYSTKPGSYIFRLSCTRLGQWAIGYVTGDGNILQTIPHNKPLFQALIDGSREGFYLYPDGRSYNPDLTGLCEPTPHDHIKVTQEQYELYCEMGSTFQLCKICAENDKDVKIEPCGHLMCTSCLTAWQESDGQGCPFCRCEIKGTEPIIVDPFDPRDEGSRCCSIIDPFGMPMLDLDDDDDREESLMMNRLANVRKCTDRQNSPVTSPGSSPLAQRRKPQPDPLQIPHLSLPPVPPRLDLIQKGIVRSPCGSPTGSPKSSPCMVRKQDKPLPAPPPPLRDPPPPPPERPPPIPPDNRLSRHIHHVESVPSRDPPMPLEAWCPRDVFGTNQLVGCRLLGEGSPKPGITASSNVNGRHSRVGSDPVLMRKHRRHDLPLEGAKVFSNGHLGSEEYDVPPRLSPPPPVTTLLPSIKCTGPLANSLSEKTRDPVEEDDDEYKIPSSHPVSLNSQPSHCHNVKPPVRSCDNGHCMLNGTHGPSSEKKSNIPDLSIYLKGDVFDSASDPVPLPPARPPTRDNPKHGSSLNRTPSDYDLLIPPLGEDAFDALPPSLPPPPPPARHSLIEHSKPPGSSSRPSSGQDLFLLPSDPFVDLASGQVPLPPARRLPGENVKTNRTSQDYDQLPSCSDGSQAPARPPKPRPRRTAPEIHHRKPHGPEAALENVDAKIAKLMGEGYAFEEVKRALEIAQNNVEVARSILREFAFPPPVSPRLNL

Assay [7] is described as follows: Induction of anti-CD3 antibodies-stimulated human T cell activation at 1 uM assessed fold increase in IL-2 secretion measured by ELISA assay. Note: reference of the scale not given here. It counts as functional, T cell line.
Assay [8] can be described thus: Induction of anti-CD3 antibodies-stimulated human T cell activation at 1 uM assessed fold increase in CD25 expression measured by ELISA assay. Note: reference of the scale not given here. It counts as functional, T cell line.
Assay [9] in a line: Induction of anti-CD3/CD28 antibodies-stimulated human T cell activation at 0.3 uM assessed fold increase in CD25 expression measured by ELISA assay. Format: functional, T cell line.
Assay [10] can be described thus: Induction of anti-CD3/CD28 antibodies-stimulated human T cell activation at 4 uM assessed fold increase in IL-2 secretion measured by ELISA assay. It counts as functional, T cell line.
Assay [11] in a line: Induction of anti-CD3/CD28 antibodies-stimulated human T cell activation at 0.3 uM assessed fold increase in IL-2 secretion measured by ELISA assay. It counts as functional, T cell line.

Molecules are shown by their SMILES.

`CC(O)c1cc2c(c(C(F)(F)F)c1)CN(c1cccc([C@@](C)(F)C(F)(F)c3nncn3C)c1)C2=O` (stereo not given in full): the “fold change (FC)” value is 1.01 in assay [1]; “>=0.201” in assay [2]; 1.01 in assay [3]; “>=1.001” in [4]; 1.01 in [5]; 0.051 in assay [7]. In addition, the “fold change (FC)” value stood at 0.801 in [8], 1.01 in [9], 5 in assay [10] and 1.01 in [11]. In addition, the IC50 (in general, the concentration at which inhibition is half-maximal) in [6] was less than 100 nM.
On to `C[C@H](Cc1nncn1C)c1cccc(NC(=O)c2nc3c(C(F)(F)F)cccc3[nH]2)c1`, for which the “fold change (FC)” value was 5 in [1]; “>=0.201” in assay [2]; “>=1.76” in assay [3]; “>=1.001” in assay [4]; 1.51 in assay [5]; “>=0.201” in [7]. For the same compound, the “fold change (FC)” value in [8] is reported as “>=1.001”; in assay [9], 1.01; in [10], “>=7.5”; in assay [11], 2.51. The IC50 in [6] was less than 100 nM.
With `Cc1cc(C(=O)Nc2cccc([C@H](C)Cc3nocc3C)c2)nc(C2CC2)n1`, the “fold change (FC)” value is on record as 2.51 in assay [1]; “>=0.201” in assay [2]; 1.01 in assay [3]; “>=1.001” in assay [4]; 1.01 in [5]; 0.051 in assay [7]. Besides, the “fold change (FC)” value in assay [8] is listed as 0.801; in assay [9] it was 1.01; in [10], 5; in assay [11], 1.01. In assay [6], this compound returned an IC50 of less than 100 nM.
For `Cn1cnnc1CC1(c2cccc(N3Cc4c(cc(CN5CC(C(=O)O)C5)cc4C(F)(F)F)C3=O)c2)COC1`, the “fold change (FC)” value in assay [1] is 1.01; in [2], “>=0.201”; in [3], 1.01; in assay [4], “>=1.001”; in assay [5], 1.01; in assay [7] it was 0.151. Further, the “fold change (FC)” value in [8] came out at 0.801; in assay [9], 1.01; in [10], 1.01; in assay [11] it was 1.01. In assay [6], this compound came in with an IC50 of less than 100 nM.
For the compound `C[C@H](Cc1nncn1C)c1cccc(N2Cc3c(cc([C@H](C)N4CC[C@H](F)C4)cc3C(F)(F)F)C2=O)c1`, the “fold change (FC)” value in assay [1] is on record as “>=7.5”; in assay [2] it was “>=0.201”; in [3], 1.31; in assay [4], “>=1.001”; in [5], 1.31; in assay [7] it was “>=0.201”. The “fold change (FC)” value was “>=1.001” in [8], 1.31 in assay [9], “>=7.5” in [10] and “>=7.5” in assay [11]. In [6], the IC50 is less than 100 nM.
`Cn1cnnc1[C@@H]1C[C@@H]1c1cccc(N2Cc3c(cc(CN4CC[C@H](F)C4)cc3C(F)(F)F)C2=O)c1`: the “fold change (FC)” value is “>=7.5” in assay [1]; “>=0.201” in assay [2]; 1.51 in assay [3]; “>=1.001” in [4]; 1.31 in assay [5]; “>=0.201” in assay [7]. The “fold change (FC)” value in assay [8] is recorded as “>=1.001”; in assay [9] it was 1.31; in [10] it was “>=7.5”; in assay [11], 2.51. The IC50 in [6] was less than 100 nM.
On to `C[C@H](Cc1nncn1C)c1cccc(NC(=O)c2cc3cc(N4CCN(C)C(=O)C4)ccc3cn2)c1.O=C(O)C(F)(F)F`, for which the “fold change (FC)” value in [1] was 5; in [2], “>=0.201”; in assay [3], 1.51; in assay [4], “>=1.001”; in assay [5], 1.31; in [7], “>=0.201”. Moreover, the “fold change (FC)” value in assay [8] is on record as “<=0.6”; in [9] it was 1.31; in [10] it was “>=7.5”; in [11], 5. The compound also yielded an IC50 in assay [6] of less than 100 nM.
`Cn1cnnc1CC(C)(C)c1cccc(NC(=O)c2cc(C(=O)N3CC[C@H](O)C3)cc(C(F)(F)F)n2)c1`: the “fold change (FC)” value in assay [1] is reported as 2.51; in assay [2], “>=0.201”; in assay [3], 1.01; in assay [4], “>=1.001”; in assay [5] it was 1.01; in assay [7], 0.101. The “fold change (FC)” value is recorded as 0.801 in [8], 1.01 in assay [9], 5 in [10] and 1.01 in assay [11]. The compound also gave an IC50 in [6] of less than 100 nM.
Take `Cn1cnnc1C(F)(F)[C@](C)(F)c1cccc(N2Cc3c(cc(CN4CC(C(F)F)C4)cc3C(F)(F)F)C2=O)c1`: the “fold change (FC)” value was “>=7.5” in [1]; 0.151 in assay [2]; 1.31 in assay [3]; “>=1.001” in [4]; 1.31 in [5]; “>=0.201” in [7]. Moreover, the “fold change (FC)” value is “>=1.001” in assay [8], 1.31 in assay [9], “>=7.5” in [10] and 5 in [11]. This compound yielded an IC50 in assay [6] of less than 100 nM.
For the compound `C[C@H](Cc1nncn1C)c1cccc(N2Cc3c(cc(C(=O)N4CC(O)C4)cc3C(F)(F)F)C2=O)c1`, the “fold change (FC)” value is reported as 2.51 in assay [1]; 0.151 in assay [2]; 1.31 in [3]; “>=1.001” in assay [4]; 1.01 in assay [5]; 0.051 in assay [7]. Moreover, the “fold change (FC)” value in assay [8] is reported as 0.801; in assay [9], 1.01; in [10], “>=7.5”; in [11], 1.01. The compound also returned an IC50 in assay [6] of less than 100 nM.
As to `Cc1ccc(C(=O)Nc2cccc([C@H](C)Sc3nncn3C)c2)nc1C1CC1`, the “fold change (FC)” value is 2.51 in assay [1]; 0.151 in [2]; 1.01 in assay [3]; 0.801 in assay [4]; 1.01 in assay [5]; “<=0.05” in assay [7]. Moreover, the “fold change (FC)” value is recorded as 0.601 in assay [8], 1.01 in [9], “>=7.5” in [10] and 1.01 in [11]. In assay [6], this compound showed an IC50 of less than 100 nM.
For `C[C@H](Cc1nncn1C)c1cccc(N2Cc3c(cc(C(=O)N4CC(O)C4)cc3C3CC3)C2=O)c1`, the “fold change (FC)” value is 1.01 in assay [1]; “>=0.201” in [2]; 1.01 in [3]; “>=1.001” in [4]; 1.01 in [5]; 0.151 in assay [7]. Also, the “fold change (FC)” value in assay [8] is 0.801; in assay [9], 1.01; in [10], 2.51; in assay [11] it was 1.01. Moreover, the IC50 in [6] was less than 100 nM.
With `C[C@H](c1cc2c(c(C(F)(F)F)c1)CN(c1cccc(C3(Cc4nncn4C)COC3)c1)C2=O)N1CCC(F)(F)C1`, the “fold change (FC)” value was “>=7.5” in assay [1]; “>=0.201” in assay [2]; 1.31 in assay [3]; “>=1.001” in [4]; 1.31 in assay [5]; 0.151 in [7]. Moreover, the “fold change (FC)” value is given as “>=1.001” in assay [8], 1.01 in assay [9], “>=7.5” in [10] and 2.51 in assay [11]. The compound also gave an IC50 in assay [6] of less than 100 nM.
Take `C[C@H](c1cc2c(c(C(F)(F)F)c1)CN(c1cccc([C@@](C)(F)C(F)(F)c3nncn3C)c1)C2=O)N1CC[C@H](F)C1`: the “fold change (FC)” value is listed as “>=7.5” in [1]; “>=0.201” in assay [2]; 1.51 in [3]; “>=1.001” in [4]; 1.31 in [5]; “>=0.201” in assay [7]. Besides, the “fold change (FC)” value in assay [8] is listed as “>=1.001”; in assay [9] it was 1.01; in assay [10] it was “>=7.5”; in assay [11], 2.51. The compound further displayed an IC50 in [6] of less than 100 nM.
For `Cn1cnnc1CC(C)(C)c1cccc(NC(=O)c2cccc(C(F)(F)F)n2)c1`, the “fold change (FC)” value is recorded as 2.51 in assay [1]; “>=0.201” in [2]; 1.31 in [3]; “>=1.001” in [4]; 1.01 in assay [5]; “>=0.201” in [7]. Further, the “fold change (FC)” value in assay [8] is 0.801; in assay [9] it was 1.01; in assay [10], “>=7.5”; in assay [11], 1.01. The compound also had an IC50 in [6] of less than 100 nM.
